From patent publication US20210395210A1, “INHIBITION OF BACTERIAL CHAPERONIN SYSTEMS” (THE TRUSTEES OF INDIANA UNIVERSITY, priority 2018, published 2021)
Like-named read-outs stand apart in the source and are kept apart here.

What was measured:
[1] = test system: Enterobacter cloacae (ATCC 13047); experiment: Bacterial proliferation assay, E. cloacae; type: cell-based
Text: (§1) Bacterial Strains: Enterococcus faecium—(Orla-Jensen) Schleifer and Kilpper-Balz strain NCTC 7171 (ATCC 19434); Drug sensitive Staphylococcus aureus—Rosenbranch strain Seattle 1945 (ATCC 25923); Methicillin resistant S. aureus (MRSA)—Rosenbach strain HPV107 (ATCC BAA-44); Klebsiella Pneumonia—(Schroeter) Trevisan strain NCTC 9633 (ATCC 13883); Acinetobacter baumannii—Bouvet and Grimont strain 2208 (ATCC 19606); Pseudomonas aeruginosa—(Schroeter) Migula strain NCTC 10332 (ATCC 10145); Enterobacter cloacae—E. cloacae, subsp. cloacae (Jordan) Hormaeche and Edwards strain CDC 442-68 (ATCC 13047).
(§2) Growth Media: All bacteria were grown in Brain Heart Infusion (BHI) broth/agar (Becton, Dickinson and Company). All liquid cultures were grown in BHI media supplemented with 25 mg/L Ca^2+ and 12.5 mg/L Mg^2+ to mimic free physiological concentrations of these cations. A 10 mg/mL Ca^2+ stock solution was prepared by dissolving 3.68 g of CaCl2.2H2O in 100 mL of deionized water, and a 10 mg/mL Mg^2+ stock solution was prepared by dissolving 8.36 g of MgCl2.6H2O in 100 mL deionized water. Both stock solutions were filter-sterilized using 0.2 μm pore size cellulose-acetate filters. 2.5 mL of the sterile 10 mg/mL Ca^2+ stock and 1.25 mL of the sterile 10 mg/mL Mg^2+ stock solutions were added per 1 L of autoclaved BHI medium to obtain 25 mg/L Ca^2+ and 12.5 mg/L Mg^2+ ions, respectively.
(§3) General Assay Protocol: Stock bacterial cultures were streaked onto BHI agar plates and grown overnight at 37° C. Fresh aliquots of broth were inoculated with single bacterial colonies and the cultures were grown overnight at 37° C. with shaking (240 rpm) in cation adjusted BHI media. The following morning, the overnight cultures were sub-cultured (1:5 dilution) into fresh aliquots of cation adjusted BHI media and grown at 37° C. for 1-2 hours with shaking. After 2 h, cultures were diluted into fresh media to achieve final OD600 readings of 0.017. Aliquots of these diluted cultures (30 μL) were added to clear, flat-bottom, 384-well polystyrene plates that were stamped with 0.5 μL of test compounds in 20 μL media. […] Plates were sealed with “Breathe Easy” oxygen permeable membranes (Diversified Biotech) and left to incubate at 37° C. without shaking (stagnant assay). OD600 nm readings were taken at either 6-8 h (S. aureus, MRSA, K. pneumonia, E. cloacae, and P. aeruginosa) or 24 h (E. faecium and A. baumannii). A second set of baseline control plates were prepared analogously, but without any bacteria added, to correct for possible compound absorbance and/or precipitation. Plates were then read at 600 nm using a Molecular Devices SpectraMax Plus384 microplate reader. […] Results presented represent the averages of EC50 values obtained from at quadriplicate (duplicate of duplicate) replicates.

[2] = test system: Drug sensitive Staphylococcus aureus (ATCC 25923); experiment: Bacterial proliferation assay, drug sensitive S. aureus; type: cell-based
Text: as §1, §2, §3

human HSP60/10 = biological target: T1, human HSP60/10 (Homo sapiens, UniProt P10809); experiment: HSP60/10-mediated dMDH refolding assay; type: biochemical; settings: human HSP60/10-dMDH refolding assay
T1 construct: octa-Histidine tag (TEV-cleavable) (N, cleaved yes); made in house; host or cells: HSP60 in E. coli Rosetta 2 (DE3); HSP10 in Rosetta 2 (DE3) pLysS
T1 sequence (P10809 27-573): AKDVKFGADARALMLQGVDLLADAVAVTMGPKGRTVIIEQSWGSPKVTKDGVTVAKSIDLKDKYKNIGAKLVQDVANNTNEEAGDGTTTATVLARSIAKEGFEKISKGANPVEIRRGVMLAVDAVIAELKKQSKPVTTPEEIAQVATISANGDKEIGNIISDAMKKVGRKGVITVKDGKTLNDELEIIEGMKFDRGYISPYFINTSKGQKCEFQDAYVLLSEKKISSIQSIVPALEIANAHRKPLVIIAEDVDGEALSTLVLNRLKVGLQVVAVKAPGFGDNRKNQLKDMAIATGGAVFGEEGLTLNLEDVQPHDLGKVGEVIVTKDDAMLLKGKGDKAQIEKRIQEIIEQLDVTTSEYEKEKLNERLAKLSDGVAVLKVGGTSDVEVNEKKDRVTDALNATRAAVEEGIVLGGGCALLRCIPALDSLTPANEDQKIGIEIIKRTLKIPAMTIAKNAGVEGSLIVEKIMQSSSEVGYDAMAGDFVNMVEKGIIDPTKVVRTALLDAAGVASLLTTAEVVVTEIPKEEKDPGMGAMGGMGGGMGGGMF
Description: Reagent preparation: For these assays, four primary reagent stocks were prepared: 1) GroEUES-dMDH or HSP60/10-dMDH binary complex stock; 2) ATP initiation stock; 3) EDTA quench stock; 4) MDH enzymatic assay stock. Denatured MDH (dMDH) was prepared by 2-fold dilution of MDH (5 mg/ml, soluble pig heart MDH from Roche, product #10127248001) with denaturant buffer (7 M guanidine-HCl, 200 mM Tris, pH 7.4, and 50 mM DTT). MDH was completely denatured by incubating at room temperature for 45 min. The binary complex solutions were prepared by slowly adding the dMDH stock to a stirring stock with GroEL (or HSP60) in folding buffer (50 mM Tris-HCl, pH 7.4, 50 mM KCl, 10 mM MgCl2, and 1 mM DTT), followed by addition of GroES (or HSP10). The binary complex stocks were prepared immediately prior to dispensing into the assay plates and had final protein concentrations of 83.3 nM GroEL (Mr 800 kDa) or HSP60 (Mr 400 kDa), 100 nM GroES or HSP10 (Mr 70 kDa), and 20 nM dMDH in folding buffer. For the ATP initiation stock, ATP solid was diluted into folding buffer to a final concentration of 2.5 mM. Quench solution contained 600 mM EDTA (pH 8.0). The MDH enzymatic assay stock consisted of 20 mM sodium mesoxalate and 2.4 mM NADH in reaction buffer (50 mM Tris-HCl, pH 7.4, 50 mM KCl, and 1 mM DTT).
Assay Protocol: First, 30 μL aliquots of the GroEL/ES-dMDH or HSP60/10-dMDH binary complex stocks were dispensed into clear, 384-well polystyrene plates. […] The chaperonin-mediated refolding cycles were initiated by addition of 20 μL of ATP stock (reagent concentrations during refolding cycle: 50 nM GroEL or HSP60, 60 nM GroES or HSP10, 12 nM dMDH, 1 mM ATP, and compounds of 100 μM to 46 nM, 3-fold dilution series). The refolding reactions were incubated at 37° C. […] Next, the assay was quenched by addition of 10 μL of the EDTA to final concentration of 100 mM. […] A340 nm measurements were recorded at 0.5 minutes (start point) and at successive time points until the amount of NADH consumed reached ˜90% (end point, generally between 20-35 minutes). The differences between the start and end point A340 values were used to calculate the % inhibition of the GroEL/ES or HSP60/10 machinery by the compounds. […] Results presented represent the averages of IC50 values obtained from at least quadriplicate (duplicate of duplicate) replicates.

[3] = ATCC13047, read-out: Bacterial Proliferation EC50 E. cloacae
[4] = ATCC13047, read-out: log(EC50) Bacterial Proliferation Assay E. cloacae (converted)
[5] = ATCC25923, read-out: Bacterial Proliferation EC50 S. aureus Sensitive
[6] = ATCC25923, read-out: S. aureus Proliferation & Biofilm Assay EC50 Planktonic Growth
[7] = ATCC25923, read-out: log(EC50) Bacterial Proliferation Assay S. aureus Sensitive (converted)
[8] = read-out: HSP60/10-dMDH Refolding IC50
[9] = log(IC50) ± standard deviation, read-out: HSP60/10-dMDH Refolding Assay log(IC50) (converted)
[10] = ATCC13047, OD600 at 6-8 h, read-out: Bacterial Proliferation EC50 E. cloacae
[11] = ATCC13047, log of EC50 (μM scale), with standard deviation, read-out: log(EC50) Bacterial Proliferation Assay E. cloacae (converted)
[12] = ATCC25923, OD600 at 6-8 h, read-out: Bacterial Proliferation EC50 S. aureus Sensitive
[13] = ATCC25923, log of EC50 (μM scale), with standard deviation, read-out: log(EC50) Bacterial Proliferation Assay S. aureus Sensitive (converted)

SMILES	EC50 [1, 3]	EC50 [1, 4]	EC50 [2, 5]	EC50 [2, 6]	EC50 [2, 7]	IC50 (human HSP60/10; [8])	IC50 (human HSP60/10; [9])	EC50 [1, 10]	EC50 [1, 11]	EC50 [2, 12]	EC50 [2, 13]
O=C(Nc1ccc(Sc2nc3ccccc3s2)c(Cl)c1)c1cc(Br)cc(Br)c1O [Compound 1, N-(4-(Benzo[d]thiazol-2-ylthio)-3-chlorophenyl)-3,5-dibromo-2-hydroxybenzamide]	> 100 µM	> 100 µM	0.36 µM	0.36 µM	0.363 µM	4.2 µM	4.17 µM	–	–	–	–
O=C(Nc1ccccc1)c1cccc(Br)c1O [Compound 14, 3-Bromo-2-hydroxy-N-phenylbenzamide]	–	–	–	–	–	> 100 µM	> 100 µM	> 100 µM	> 100 µM	6.4 µM	6.46 µM
O=C(Nc1ccc(Sc2nc3ccccc3s2)c(Cl)c1)c1cc(Br)ccc1O [Compound 3, N-(4-(Benzo[d]thiazol-2-ylthio)-3-chlorophenyl)-5-bromo-2-hydroxybenzamide]	> 100 µM	> 100 µM	0.12 µM	–	0.117 µM	> 100 µM	> 100 µM	–	–	–	–
O=C(Nc1ccc(Sc2nc3ccccc3s2)cc1)c1cc(Br)ccc1O [Compound 7, N-(4-(Benzo[d]thiazol-2-ylthio)phenyl)-5-bromo-2-hydroxybenzamide]	> 100 µM	> 100 µM	0.12 µM	–	0.12 µM	> 100 µM	> 100 µM	–	–	–	–
O=C(Nc1cccc(Cl)c1)c1cc(Br)cc(Br)c1 [Compound 23, 3,5-Dibromo-N-(3-chlorophenyl)benzamide]	–	–	–	–	–	> 100 µM	> 100 µM	> 100 µM	> 100 µM	14 µM	13.8 µM
O=C(Nc1cccc(Cl)c1)c1cc(Br)ccc1O [Compound 11, 5-Bromo-N-(3-chlorophenyl)-2-hydroxybenzamide]	> 100 µM	> 100 µM	0.46 µM	0.46 µM	0.457 µM	> 100 µM	> 100 µM	–	–	–	–
O=C(Nc1ccc(Sc2nc3ccccc3s2)c(Cl)c1)c1cccc(Br)c1O [Compound 2, N-(4-(Benzo[d]thiazol-2-ylthio)-3-chlorophenyl)-3-bromo-2-hydroxybenzamide]	> 100 µM	> 100 µM	0.45 µM	0.45 µM	0.457 µM	6.9 µM	6.92 µM	–	–	–	–
O=C(Nc1ccccc1)c1cc(Br)ccc1O [Compound 15, 5-Bromo-2-hydroxy-N-phenylbenzamide]	–	–	–	–	–	> 100 µM	> 100 µM	> 100 µM	> 100 µM	2.8 µM	2.75 µM
